The record followed here is patent US10093630B2, “Pyrazole compounds and methods of making and using same” (ABIDE THERAPEUTICS, INC., priority 2014, dated 2018).

Like-named read-outs stand apart in the source and are kept apart here.

What all share (assay): In vitro competitive activity-based protein profiling (gel-based, FP-Rh or HT-01 probe)
What all share (type): biochemical

For one test, the target named is T1, ABHD6 (Mus musculus, UniProt Q8R2Y0).
T1 construct: Proteomes (mouse brain membrane fraction or cell lysates); from tissue; host or cells: mouse brain membrane fraction (or cell lysates, not specified)
T1 sequence (Q8R2Y0 1-336): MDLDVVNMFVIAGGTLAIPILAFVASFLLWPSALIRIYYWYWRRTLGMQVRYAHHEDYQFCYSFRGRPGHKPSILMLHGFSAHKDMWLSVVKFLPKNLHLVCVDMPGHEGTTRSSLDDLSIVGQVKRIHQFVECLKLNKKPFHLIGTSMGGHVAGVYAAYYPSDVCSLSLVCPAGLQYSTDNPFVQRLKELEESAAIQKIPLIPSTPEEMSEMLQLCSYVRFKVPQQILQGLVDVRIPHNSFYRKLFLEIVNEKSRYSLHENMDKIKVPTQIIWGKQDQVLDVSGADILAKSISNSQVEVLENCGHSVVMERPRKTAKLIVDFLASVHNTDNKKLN
The following applies: for inhibition at 1 µM: 1 μM inhibitor, read-out: % Inhibition at 1 μM, C = ABHD6; for inhibition at 10 µM: 10 μM inhibitor, read-out: % Inhibition at 10 μM, C = ABHD6; for IC50: mouse brain membrane fraction or cell lysates, 30 min preincubation at 37° C., read-out: Mouse (IC50 value, nM) ABHD6. The procedure, abridged:
(§1)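 Gel-based read-out: fluorescent band intensity after SDS-PAGE reflected remaining hydrolase activity. Inhibitors were preincubated 30 min at 37° C with 1.0 mg/mL mouse brain membrane or lysate proteome before a further 30 min at 37° C with FP-Rh or HT-01 probe.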

Another test addresses T2, PLA2G7 (Mus musculus, UniProt Q60963).
T2 construct: Proteomes (mouse brain membrane fraction or cell lysates); from tissue; host or cells: mouse brain membrane fraction (or cell lysates, not specified)
T2 sequence (Q60963 22-440): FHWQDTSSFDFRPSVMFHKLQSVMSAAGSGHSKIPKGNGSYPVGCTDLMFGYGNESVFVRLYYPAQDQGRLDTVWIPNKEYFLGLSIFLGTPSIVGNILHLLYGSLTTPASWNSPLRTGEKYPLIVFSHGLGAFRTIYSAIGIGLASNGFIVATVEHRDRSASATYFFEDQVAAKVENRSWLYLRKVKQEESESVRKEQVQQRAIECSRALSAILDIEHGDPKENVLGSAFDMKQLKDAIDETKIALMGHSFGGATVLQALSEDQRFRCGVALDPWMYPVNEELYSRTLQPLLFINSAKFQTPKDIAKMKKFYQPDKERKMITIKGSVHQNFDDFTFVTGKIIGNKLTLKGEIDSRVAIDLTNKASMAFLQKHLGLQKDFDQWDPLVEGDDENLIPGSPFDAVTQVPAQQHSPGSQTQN
As to conditions: for inhibition at 1 µM: 1 μM inhibitor, read-out: % Inhibition at 1 μM, D = PLA2G7; for inhibition at 10 µM: 10 μM inhibitor, read-out: % Inhibition at 10 μM, D = PLA2G7; for IC50: mouse brain membrane fraction or cell lysates, 30 min preincubation at 37° C. In a few lines: as §1

A further test deals with T3, FAAH (Mus musculus, UniProt O08914).
T3 construct: Proteomes (mouse brain membrane fraction or cell lysates); from tissue; host or cells: mouse brain membrane fraction (or cell lysates, not specified)
T3 sequence (O08914 1-579): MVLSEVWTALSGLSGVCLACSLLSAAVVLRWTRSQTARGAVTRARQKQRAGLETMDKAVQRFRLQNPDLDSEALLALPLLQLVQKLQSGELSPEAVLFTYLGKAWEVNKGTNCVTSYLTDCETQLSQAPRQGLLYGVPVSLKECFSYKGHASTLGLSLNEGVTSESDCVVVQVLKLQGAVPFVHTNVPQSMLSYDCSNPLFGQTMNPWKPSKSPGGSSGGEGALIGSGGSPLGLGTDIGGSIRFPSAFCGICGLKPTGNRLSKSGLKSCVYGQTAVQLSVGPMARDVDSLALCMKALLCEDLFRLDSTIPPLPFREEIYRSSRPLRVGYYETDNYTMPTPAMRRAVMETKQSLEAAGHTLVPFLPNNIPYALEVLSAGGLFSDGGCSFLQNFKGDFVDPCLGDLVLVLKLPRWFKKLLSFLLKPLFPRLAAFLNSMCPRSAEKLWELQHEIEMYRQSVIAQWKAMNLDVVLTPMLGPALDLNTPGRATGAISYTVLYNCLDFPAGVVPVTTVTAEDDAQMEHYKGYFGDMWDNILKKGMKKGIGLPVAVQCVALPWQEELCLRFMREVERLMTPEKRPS
The following applies: for inhibition at 1 µM: 1 μM inhibitor, read-out: % Inhibition at 1 μM, B = FAAH; for inhibition at 10 µM: 10 μM inhibitor, read-out: % Inhibition at 10 μM, B = FAAH; for IC50: mouse brain membrane fraction or cell lysates, 30 min preincubation at 37° C., read-out: Mouse (IC50 value, nM) FAAH. In a few lines:
as §1

The target of a further test is T4, MAGL (Mus musculus, UniProt O35678).
T4 construct: Proteomes (mouse brain membrane fraction or cell lysates); from tissue; host or cells: mouse brain membrane fraction (or cell lysates, not specified)
T4 sequence (O35678 1-303): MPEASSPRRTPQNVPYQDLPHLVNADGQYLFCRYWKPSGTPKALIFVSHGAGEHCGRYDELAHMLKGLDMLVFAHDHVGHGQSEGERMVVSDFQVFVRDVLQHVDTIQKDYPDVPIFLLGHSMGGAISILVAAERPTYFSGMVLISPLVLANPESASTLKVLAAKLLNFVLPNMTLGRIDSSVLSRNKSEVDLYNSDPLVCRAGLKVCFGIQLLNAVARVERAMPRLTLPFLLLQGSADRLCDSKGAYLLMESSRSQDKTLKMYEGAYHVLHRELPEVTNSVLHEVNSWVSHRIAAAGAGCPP
As to conditions: for inhibition at 1 µM: 1 μM inhibitor; for inhibition at 10 µM: 10 μM inhibitor; for IC50: mouse brain membrane fraction or cell lysates, 30 min preincubation at 37° C., read-out: Mouse (IC50 value, nM) MAGL. The procedure, abridged: as §1

Turning to `O=C(N1CCN(c2ccccc2Cl)CC1)n1cc(C(F)(F)F)cn1` [Example 227, (4-(2-Chlorophenyl)piperazin-1-yl)(4-(trifluoromethyl)-1H-pyrazol-1-yl)methanone], the inhibition at 1 µM on ABHD6, at PLA2G7, on FAAH and at MAGL was more than 75% in each case. The inhibition at 10 µM on ABHD6, on PLA2G7, at FAAH and at MAGL was more than 75% throughout. Besides, the IC50 on ABHD6, on PLA2G7, on FAAH and at MAGL was less than 100 nM each time.

Consider `CCN(Cc1cccc(N2CCOCC2)c1)C(=O)n1cc(C)cn1` [Example 262, N-Ethyl-4-methyl-N-(3-morpholinobenzyl)-1H-pyrazole-1-carboxamide], for which the inhibition at 1 µM on ABHD6 (gel-based competitive ABPP), at PLA2G7 (gel-based competitive ABPP), on FAAH (gel-based competitive ABPP) and at MAGL (gel-based competitive ABPP) was less than 25% in each case.

Take `O=C(c1cnn(C(=O)N2CCN(Cc3ccccn3)CC2)c1)N1CCOCC1` [Example 77, (4-(Morpholine-4-carbonyl)-1H-pyrazol-1-yl)(4-(pyridin-2-ylmethyl)piperazin-1-yl)methanone]: the inhibition at 1 µM at ABHD6 and at PLA2G7 was less than 25% throughout. For the same compound, the inhibition at 10 µM was more than 75% on ABHD6, more than 75% on PLA2G7, less than 25% at FAAH and less than 25% on MAGL.

In the case of `O=C(c1cnn(C(=O)N2CCN(Cc3cncnc3)CC2)c1)N1CCC1` [Example 92, Azetidin-1-yl(1-(4-(pyrimidin-5-ylmethyl)piperazine-1-carbonyl)-1H-pyrazol-4-yl)methanone], the inhibition at 1 µM at ABHD6 and on PLA2G7 was less than 25% in each case. For the same compound, the inhibition at 10 µM at ABHD6 was more than 75%; on PLA2G7, more than 75%; on FAAH, less than 25%; at MAGL, less than 25%.

For the compound `CC(C)(C)OC(=O)N1CCN(C(=O)n2cccn2)CC1` [Example 4, tert-Butyl 4-(1H-pyrazole-1-carbonyl)piperazine-1-carboxylate], the inhibition at 1 µM on ABHD6 was 25 to 75%; on PLA2G7, less than 25%; at FAAH, more than 75%; on MAGL it was less than 25%. Moreover, the inhibition at 10 µM is more than 75% on ABHD6, more than 75% at PLA2G7, more than 75% on FAAH and 25 to 75% on MAGL.

In the case of `COc1cc(-c2ccccc2)ccc1CN1CCN(C(=O)n2cc(C#N)cn2)CC1` [Example 145, 1-(4-((3-Methoxybiphenyl-4-yl)methyl)piperazine-1-carbonyl)-1H-pyrazole-4-carbonitrile], the inhibition at 1 µM at ABHD6, at PLA2G7, on FAAH and at MAGL was more than 75% each time. For the same compound, the inhibition at 10 µM at ABHD6, at PLA2G7, on FAAH and at MAGL was more than 75% in each case.

For `Cc1cnn(C(=O)N2CCCN(C(=O)c3ccccc3)CC2)c1` [Example 169, (4-Benzoyl-1,4-diazepan-1-yl)(4-methyl-1H-pyrazol-1-yl)methanone], the inhibition at 10 µM at ABHD6 was 25 to 75%; on PLA2G7, less than 25%; on FAAH it was less than 25%; at MAGL it was 25 to 75%.

With `Cc1cnn(C(=O)N(C)CCN(C)Cc2ccccc2)c1` [Example 171, N-(2-(Benzyl(methyl)amino)ethyl)-N,4-dimethyl-1H-pyrazole-1-carboxamide], the inhibition at 10 µM at ABHD6, on PLA2G7, on FAAH and at MAGL was less than 25% in each case.

For `CCN(Cc1cccc(N2CCOCC2)c1)C(=O)n1cc(C(F)(F)F)cn1` [Example 261, N-Ethyl-N-(3-morpholinobenzyl)-4-(trifluoromethyl)-1H-pyrazole-1-carboxamide], the inhibition at 1 µM on ABHD6 (gel-based competitive ABPP) is 25 to 75%; on PLA2G7 (gel-based competitive ABPP), less than 25%; at FAAH (gel-based competitive ABPP), more than 75%; at MAGL (gel-based competitive ABPP), 25 to 75%. Moreover, the IC50 was more than 1000 nM at ABHD6, more than 1000 nM on PLA2G7, less than 100 nM at FAAH and 100 to 1000 nM at MAGL.

Consider `N#Cc1cnn(C(=O)N2CCCN(Cc3ccccc3)CC2)c1` [Example 179, 1-(4-Benzyl-1,4-diazepane-1-carbonyl)-1H-pyrazole-4-carbonitrile], for which the inhibition at 1 µM on ABHD6 was more than 75%; at PLA2G7, less than 25%; at FAAH, more than 75%; on MAGL, more than 75%. Moreover, the inhibition at 10 µM on ABHD6, on PLA2G7, at FAAH and at MAGL was more than 75% throughout. The IC50 at ABHD6 was more than 1000 nM; on PLA2G7 it was more than 1000 nM; on FAAH, less than 100 nM; on MAGL it was more than 1000 nM.

As for `O=C(c1ccccc1)N1CCCN(C(=O)n2cc(Cl)cn2)CC1` [Example 192, (4-Benzoyl-1,4-diazepan-1-yl)(4-chloro-1H-pyrazol-1-yl)methanone], the inhibition at 1 µM on ABHD6 was 25 to 75%; on PLA2G7, less than 25%; at FAAH, less than 25%; at MAGL it was 25 to 75%. The inhibition at 10 µM on ABHD6, on PLA2G7, at FAAH and at MAGL was more than 75% throughout.

As for `O=C(N1CCN(Cc2nccs2)CC1)n1cc(-c2ccccc2)cn1` [Example 63, (4-Phenyl-1H-pyrazol-1-yl)(4-(thiazol-2-ylmethyl)piperazin-1-yl)methanone], the inhibition at 1 µM on ABHD6 and at PLA2G7 was more than 75% in each case. The inhibition at 10 µM on ABHD6 was more than 75%; at PLA2G7, more than 75%; at FAAH it was more than 75%; on MAGL, less than 25%. For the same compound, the IC50 on ABHD6 fell in the range of 100 to 1000 nM.
